{
  "source": "patent US5171271A",
  "about": "“Polypeptides with fibronectin activity” (Regents of the University of Minnesota, priority 1991, dated 1992)",
  "key": {"[1]": {"test": "Heparin-binding assay on nitrocellulose sheets", "protocol": "The assay for heparin binding utilizes nitrocellulose sheets as substrata to bind peptides or proteins to be tested for heparin binding activity. Peptides I and II or intact fibronectin (fn) were solubilized in 50 mM (NH4)2 CO3 and diIuted to the concentrations indicated in FIGS. 2 and 3. Nitrocellulose sheets which had been presoaked in 50 mM NH4 CO3 were placed in a 96 well dot blot apparatus (Bethesda Research Laboratories Bethesda, Md.), and 250 μl of various concentrations of each peptide were aspirated through the wells. Each well was then washed three times with binding buffer (10 mM Tris-HCl, pH 8.0, 0.15 M NaCl), and the filters were removed and allowed to air dry overnight. The filters were then equilibriated for 5 minutes at room temperature in binding buffer which contained 10 mM CaCl2. ^3 H-heparin was then diluted to a concentration of 50,000 cpm/ml in binding buffer (with Ca^++), and nitrocellulose sheets were incubated in the presence of this mixture for 2 hours. The filters were then washed four times with binding buffer, and air dried. The individual spots of samples were cut out of the nitrocellulose and bound heparin was quantitated with a liquid scintillation counter."}, "[2]": {"system": "Bovine aortic endothelial cells", "test": "Aortic endothelial cell adhesion assay", "type": "cell-based", "conditions": "coating concentration 5 μg/ml, 90 minutes", "protocol": "Bovine aortic encothelial cells were isolated according to the following protocol. Aortas were obtained from a local slaughterhouse, washed in cold phosphate buffered saline (PBS) (136 mM NaCI, 2.6 mM KCl, 15.2 mM Na2 HPO4, pH 7.2) and processed within 2 hours. Crude collagenase (CLS III, 125-145 units per mg dry weight, Cooper Biomedical) was used at 2 mg/ml in Dulbecco's modified Eagle's medium (DMEM) (GIBCO). The vessel was clamped at the distal end, filled with the collagenase-PBS solution and digestion was carried out for 10 minutes. The lumenal contents were harvested, followed by the addition of fresh collagenase for two additional 10-minute periods. The enzyme-cell suspensions were added to an equal volume of DMEM containing 10% fetal bovine serum (FBS) to inhibit the enzyme and spun in a centrifuge at 400×g for 10 minutes. The resulting cell pellet was resuspended in DMEM containing 10% FBS, 100 units/ml of penicillin G, 100 μg/ml of streptomycin and 100 μg/ml of crude fibroblast growth factor. Cells are cultured in 75 cm^2 flasks in a humidified 5% CO2 atmosphere at 37° C. Cultures were fed twice a week with the same medium and cells were used in assays when approximately 75% confluent. […]\nAdhesion was measured using 96 well microtiter plates adsorbed with fibronectin or peptides I and II. […] The solubilized cells were then quantitated using a liquid scintillation counter. […]"}, "[3]": {"system": "K1735M4 metastatic melanoma cells", "conditions": "for Tumor Cell Adhesion, Adherent Cells: melanoma cells, one hour", "procedure": "The cells were cultured in Dulbecco's Modified Eagle's Medium containing 5% heat inactivated fetal calf serum. The cultures were grown in 37° C. incubators with a humidified atmosphere containing 5% CO2. Cells were subcultured twice weekly by releasing cells gently from the flask, using 0.05% trypsin and 1 mM EDTA.\nThe melanoma cells were pulsed in the same fashion as the endothelial cells described hereinabove, except that 2 μCi/ml ^3 HTd(tritiated thymidine) was added to each culture instead of amino acids. The labeled cells were harvested as described for the endothelial cells. The cell adhesion assay was identical to that described hereinabove for the bovine aortic endothelial cell assay."}, "[4]": {"test": "Solid phase heparin-binding assay on Immulon C plates", "protocol": "Both peptides IIa and CS I were then compared for relative heparin-binding activity. Plastic Immulon C plates (Dynatech, Alexandria, Va.) were adsorbed with 100 μl in triplicate) of the indicated levels of peptides IIa, CS I or BSA as described. The ability of the 33 kD fragment to bind heparin was also determined, for comparison, although due to the relative size of this fragment compared with the peptides, different coating concentrations were used. The actual coating levels of the 33 kD fragment were 4, 20, 100 and 500 μg/ml. Following the blocking of nonspecific binding sites with BSA, the ability of these various substrata to bind ^3 H-heparin was determined by the addition of approximately 4,000 disintegrations per minute (dpm) of this ligand. All conditions of the assay were as described in U.S. patent application Ser. No. 89,073, the disclosure of which is incorporated by reference herein.\nThe three peptides derived from peptide Ila and intact peptide IIa, were adsorbed to Immulon C plates at the indicated concentrations (100 μl/ well) in triplicate and tested for the ability to bind ^3 H-heparin as described hereinabove. The results of this study are summarized on FIG. 5. […] Rather, a specific primary structure is crucial for this activity. […]"}, "[5]": {"system": "CNS neurons from spinal cords of 6-day chick embryos", "test": "Neurite outgrowth assay, CNS neurons", "type": "cell-based", "protocol": "Peptides I, II, IIa, III, CSI or intact fibronectin were diluted in Voller's buffer (0.05M Carbonate buffer, pH 9.6) and 100 μl of each concentration was dipensed into 96 well tissue culture plates in triplicate. The plates were then placed in a sterile hood overnight to evaporate the buffer and to dry the peptides onto the plate. The following morning, 200 μl of phosphate-buffered saline (PBS) containing 5 mg/ml bovine serum albumin (PBS/BSA) were added to each well and the plates were incubated for an additional 3 hours. At that point, the PBS/BSA was aspirated and cells in the appropriate media were added to each well.\nEmbryonic CNS nerve cell cultures were prepared by the method of Rogers et al., Devel. Biol., 98, 212-220 (1983). Briefly, spinal cords from 6-day chick embryos were isolated and their dorsal halves removed and placed Ca^++ -Mg^++ free (CMF) Hank's balanced salt solution for 10 minutes at 37° C. Only the ventral portions, containing predominantly motor neurons, were prepazed for culture. The cords were then dissociated in 0.25% trypsin (Bactotrypsin, Difco) in CMF Hanks for 25 minutes at 37° C. […] The number of neurons with neurites was quantitated by randomly sampling 10 fields with the aid of a dissecting microscope. […]"}},
  "note": "Read-outs that look alike come from different tables or passages of the source.",
  "data": [
    {"substance": "Fibronectin", "values": [
      {"measurement": "3H-heparin binding (in words)", "setting": "[1]", "value": "bound ^3 H-heparin in a concentration dependent manner"},
      {"measurement": "Concentration at which maximum 3H-heparin binding was observed", "setting": "[1]", "value": "10^-6 M"},
      {"measurement": "Adherent Cells", "setting": "[2]", "value": "13,714 Counts Per Minute"},
      {"measurement": "Tumor Cell Adhesion, Adherent Cells", "setting": "[3]; coating concentration 1 μg/ml", "value": 4700, "unit": "Counts Per Minute"},
      {"measurement": "Tumor Cell Adhesion, Adherent Cells", "setting": "[3]; coating concentration 10 μg/ml", "value": 7900, "unit": "Counts Per Minute"},
      {"measurement": "Tumor Cell Adhesion, Adherent Cells", "setting": "[3]; coating concentration 50 μg/ml", "value": "11,000 Counts Per Minute"},
      {"measurement": "Tumor Cell Adhesion, Adherent Cells", "setting": "[3]; coating concentration 100 μg/ml", "value": 9700, "unit": "Counts Per Minute"}
    ]},
    {"substance": "asp-glu-leu-pro-gln-leu-val-thr-leu-pro-his-pro-asn-leu-his-gly-pro-glu-ile-leu-asp-val-pro-ser-thr [Peptide CS I, reference compound]", "values": [
      {"measurement": "3H-heparin binding (in words)", "setting": "[4]", "value": "failed to bind to heparin at any concentration that was tested"},
      {"measurement": "Promotion of neurite extension by CNS neurons (in words)", "setting": "[5]", "value": "CNS neurons appeared to be preferably stimulated by peptide CS I"},
      {"measurement": "Promotion of melanoma cell adhesion (in words)", "setting": "[3]", "value": "promoted the adhesion of melanoma cells in culture"},
      {"measurement": "Melanoma Cell Adhesion, Percent Adhesion", "setting": "[3]; concentration 80 μg/ml", "value": 71.7, "unit": "%"},
      {"measurement": "Melanoma Cell Adhesion, Percent Adhesion", "setting": "[3]; concentration 400 μg/ml", "value": 71.0, "unit": "%"}
    ]}
  ]
}
